Measurements taken from patent publication US6072051A, “Nucleoside derivatives and process for preparing the same” (priority 1995, dated 2000).
Like-named read-outs stand apart in the source and are kept apart here.

What was measured:
[1] = Toxicity (CC50) in Hep G2 2.2.15 cell lines, anti-HBV test; format: cell-based; details: human, hep g2 2.2.15 cells
Method: (§1) The anti-HBV activity of the compounds according to the present invention, was tested in Hep G2 2.2.15 cell lines, as using 2',3'-dideoxycytidine as a control compound.

[2] = test system: HBV; experiment: Test of Anti-HBV Activity in Hep G2 2.2.15 cell lines; format: cell-based; details: for EC50 / EC90: Hepatitis B virus, HepG2 2.2.15
Method: as §1

[3] = test system: HBV; details: Proc. Natl. Acad. Sci. USA, 88, 8495 (1991); Biochem. Pharm., 47, 171 (1994); cited from earlier work
[4] = Hep G2 2.2.15 cell lines, anti-HBV activity, read-out: EC50
[5] = Hep G2 2.2.15 cell lines, anti-HBV activity, read-out: EC90

Compound	CC50 [1] [µM]	EC50 [2, 4] [µM]	EC90 [2, 5] [µM]	Sl (CC50 /EC90) ([2]; human, hep g2 2.2.15 cells)	anti-HBV activity (reported) [3]	EC50 [2] [µM]	EC90 [2] [µM]	Sl (CC50 /EC90) ([2]; ratio CC50 /EC90, Hep G2 2.2.15 cell lines)
Nc1ccn([C@@H]2C[C@](F)(CO)CO2)c(=O)n1 (relative stereo) [Compound 7, cis-2-(Cytosin-1-yl)-4-fluoro-4-hydroxymethyltetrahydrofuran]	1550	0.011	0.143	10,811	–	–	–	–
Nc1nc(=O)n([C@@H]2CC[C@H](CO)O2)cc1F [2', 3'-dideoxy-β-L-5-fluorocytidine]	–	–	–	–	have anti-HBV activity	–	–	–
Nc1ccn([C@@H]2CC[C@H](CO)O2)c(=O)n1 [2', 3'-dideoxy-β-L-cytidine]	–	–	–	–	have anti-HBV activity	–	–	–
Cc1cn([C@@H]2C[C@](F)(CO)CO2)c(=O)[nH]c1=O (relative stereo) [Compound 5, cis-2-(Thymin-1-yl)-4-fluoro-4-hydroxymethyltetrahydrofuran]	472	0.1	0.8	590	–	–	–	–
Nc1ccn([C@H]2CC[C@@H](CO)O2)c(=O)n1 [Control compound, 2',3'-dideoxycytidine, reference compound]	1080	–	–	–	–	7.57	35	30.811
Nc1nc(=O)n([C@@H]2C[C@](F)(CO)CO2)cc1F (relative stereo) [Compound 9, cis-2-(5-Fluorocytosin-1-yl)-4-fluoro-4-hydroxymethyltetrahydrofuran]	2230	0.8	0.7	319	–	–	–	–
Nc1ccn([C@H]2CS[C@@H](CO)O2)c(=O)n1 [2',3'-dideoxy-3'-thiacytidine]	–	–	–	–	have anti-HBV activity	–	–	–
Nc1nc(=O)n([C@H]2C[C@](F)(CO)CO2)cc1F (relative stereo) [Compound 10, trans-2-(5-Fluorocytosin-1-yl)-4-fluoro-4-hydroxymethyltetrahydrofuran]	955	0.061	0.835	1,444	–	–	–	–
O=c1[nH]c(=O)n([C@H]2C[C@](F)(CO)CO2)cc1I (relative stereo) [Compound 16, trans-2-(5-iodouracil-1-yl)-4-fluoro-4-hydroxymethyltetrahydrofuran]	451	0.8	5.3	85	–	–	–	–
Nc1ccn([C@H]2C[C@](F)(CO)CO2)c(=O)n1 (relative stereo) [Compound 8, trans-2-(Cytosin-1-yl)-4-fluoro-4-hydroxymethyltetrahydrofuran]	1500	0.08	0.522	2,874	–	–	–	–
O=c1[nH]c(=O)n([C@@H]2C[C@](F)(CO)CO2)cc1I (relative stereo) [Compound 15, cis-2-(5-Iodouracil-1-yl)-4-fluoro-4-hydroxymethyltetrahydrofuran]	2200	0.6	4.4	501	–	–	–	–
Nc1nc(=O)n([C@H]2CS[C@@H](CO)O2)cc1F [5-fluoro-2', 3'-dideoxy-3'-thiacytidine]	–	–	–	–	have anti-HBV activity	–	–	–
Cc1cn([C@H]2C[C@](F)(CO)CO2)c(=O)[nH]c1=O (relative stereo) [Compound 6, trans-2-(Thymin-1-yl)-4-fluoro-4-hydroxymethyltetrahydrofuran]	2320	0.2	1	2,321	–	–	–	–
